From US20110105509A1 (Wyeth, LLC, priority 2009, published 2011)

target: T1, CRTH2 (Homo sapiens, UniProt Q9Y5Y4); experiment: FRET based competitive immunoassay (cAMP) in CRTH2 expressing CHO cells; type: cell-based; conditions: CRTH2 expressing CHO cells incubated with forskolin and PGD2; Eu3+ cryptate-labeled anti-cAMP and d2-labeled cAMP
T1 construct: expressed in transfected cells; host or cells: CHO cells
T1 sequence (Q9Y5Y4 1-395): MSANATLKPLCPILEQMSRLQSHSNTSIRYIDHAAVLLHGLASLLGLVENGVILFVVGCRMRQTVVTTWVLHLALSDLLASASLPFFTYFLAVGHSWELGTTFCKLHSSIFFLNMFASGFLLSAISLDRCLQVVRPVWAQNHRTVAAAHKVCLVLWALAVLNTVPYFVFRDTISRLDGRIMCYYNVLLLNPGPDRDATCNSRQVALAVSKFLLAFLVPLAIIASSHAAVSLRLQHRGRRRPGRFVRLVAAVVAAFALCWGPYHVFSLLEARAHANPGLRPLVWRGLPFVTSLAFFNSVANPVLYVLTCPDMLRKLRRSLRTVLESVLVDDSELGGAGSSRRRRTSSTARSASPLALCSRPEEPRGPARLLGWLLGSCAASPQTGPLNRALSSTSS
Protocol: FRET Assay: To evaluate potency compounds were tested in a FRET based competitive immunoassay in which CRTH2 expressing CHO cells were incubated in the presence of forskolin and PGD2 along with Eu3+ cryptate-labeled anti-cAMP and d2-labeled cAMP.

| IC50 [nM] | SMILES |
| --- | --- |
| > 1000 | Cc1c(-c2nn(Cc3ccccc3)c(=O)c3ccccc23)c2cc(F)cc(S(C)(=O)=O)c2n1CC(=O)O [Example 237, 2-(3-(3-benzyl-4-oxo-3,4-dihydrophthalazin-1-yl)-5-fluoro-2-methyl-7-(methyl-sulfonyl)-1H-indol-1-yl)acetic acid] |
| 13 | Cc1c(Cc2ccc(=O)n(Cc3ccc(C(C)(C)O)cc3)n2)c2cc(F)ccc2n1CC(=O)O [Example 238, 2-(5-fluoro-3-((1-(4-(2-hydroxypropan-2-yl)benzyl)-6-oxo-1,6-dihydropyridazin-3-yl)methyl)-2-methyl-1H-indol-1-yl)acetic acid] |
| 7 | Cc1c(Cc2ccc(=O)n(Cc3ccc(C(O)(C(F)(F)F)C(F)(F)F)cc3)n2)c2cc(F)ccc2n1CC(=O)O [Example 239, 2-(5-fluoro-3-((1-(4-(1,1,1,3,3,3-hexafluoro-2-hydroxypropan-2-yl)benzyl)-6-oxo-1,6-dihydropyridazin-3-yl)methyl)-2-methyl-1H-indol-1-yl)acetic acid] |
| 4 | Cc1c(Cc2ccc(=O)n(Cc3cccc(C(C)(C)O)c3)n2)c2cc(F)ccc2n1CC(=O)O [Example 240, 2-(5-fluoro-3-((1-(3-(2-hydroxypropan-2-yl)benzyl)-6-oxo-1,6-dihydropyridazin-3-yl)methyl)-2-methyl-1H-indol-1-yl)acetic acid] |
| 33 | Cc1c(-c2nn(Cc3ccccc3)c(=O)c3ccccc23)c2cc(F)cc(Cl)c2n1CC(=O)O [Example 243, 2-(3-(3-benzyl-4-oxo-3,4-dihydrophthalazin-1-yl)-7-chloro-5-fluoro-2-methyl-1H-indol-1-yl)acetic acid] |
| 587 | Cc1c(-c2nn(Cc3ccccc3)c(=O)c3ccccc23)c2cc(Cl)cc(Cl)c2n1CC(=O)O [Example 245, 2-(3-(3-benzyl-4-oxo-3,4-dihydrophthalazin-1-yl)-5,7-dichloro-2-methyl-1H-indol-1-yl)acetic acid] |
| > 2000 | Cc1c(-c2ccc(=O)n(Cc3ccccc3)n2)c2cccc(Br)c2n1CC(=O)O [Example 246, 2-(3-(1-benzyl-6-oxo-1,6-dihydropyridazin-3-yl)-7-bromo-2-methyl-1H-indol-1-yl)-acetic acid] |
| 15 | Cc1c(-c2cn(Cc3ccccc3)c(=O)c3ccccc23)c2cc(F)ccc2n1CC(=O)O [Example 248, 2-(3-(2-benzyl-1-oxo-1,2-dihydroisoquinolin-4-yl)-5-fluoro-2-methyl-1H-indol-1-yl)acetic acid] |
| 5 | Cc1c(-c2cn(C(C)C)c(=O)c3ccccc23)c2cc(F)ccc2n1CC(=O)O [Example 249, 2-(5-fluoro-3-(2-isopropyl-1-oxo-1,2-dihydroisoquinolin-4-yl)-2-methyl-1H-indol-1-yl)acetic acid] |
| 4 | Cc1c(-c2cn(CC(F)(F)F)c(=O)c3ccccc23)c2cc(F)ccc2n1CC(=O)O [Example 250, 2-(5-fluoro-2-methyl-3-(1-oxo-2-(2,2,2-trifluoroethyl)-1,2-dihydroiso-quinolin-4-yl)-1H-indol-1-yl)acetic acid] |
| 205 | Cc1c(-c2cn(CC(F)(F)F)c(=O)c3ccccc23)c2ccccc2n1CC(=O)O [Example 251, 2-(2-methyl-3-(1-oxo-2-(2,2,2-trifluoroethyl)-1,2-dihydroisoquinolin-4-yl)-1H-indol-1-yl)acetic acid] |
| 12 | Cc1c(-c2cn(C(C)C)c(=O)c3ccccc23)c2ccccc2n1CC(=O)O [Example 252, 2-(3-(2-isopropyl-1-oxo-1,2-dihydroisoquinolin-4-yl)-2-methyl-1H-indol-1-yl)acetic acid] |
| 15 | Cc1c(-c2cn(CC(C)(C)O)c(=O)c3ccccc23)c2cc(F)ccc2n1CC(=O)O [Example 254, 2-(5-fluoro-3-(2-(2-hydroxy-2-methylpropyl)-1-oxo-1,2-dihydroisoquinolin-4-yl)-2-methyl-1H-indol-1-yl)acetic acid] |
| 23 | Cc1c(-c2nn(CC(N)=O)c(=O)c3ccccc23)c2cc(Cl)ccc2n1CC(=O)O [Example 259c, 2-(3-(3-(2-amino-2-oxoethyl)-4-oxo-3,4-dihydrophthalazin-1-yl)-5-chloro-2-methyl-1H-indol-1-yl)acetic acid] |
| 3380 | Cc1c(-c2ccc(=O)n(Cc3nnc[nH]3)n2)c2cc(F)ccc2n1CC(=O)O [Example 260a, 2-(3-(1-((4H-1,2,4-triazol-3-yl)methyl)-6-oxo-1,6-dihydropyridazin-3-yl)-5-fluoro-2-methyl-1H-indol-1-yl)acetic acid] |
| 11 | Cc1c(-c2nn(Cc3ncnn3-c3ccccc3)c(=O)c3ccccc23)c2cc(F)ccc2n1CC(=O)O [Example 261, 2-(5-fluoro-2-methyl-3-(4-oxo-3-((1-phenyl-1H-1,2,4-triazol-5-yl)methyl)-3,4-dihydrophthalazin-1-yl)-1H-indol-1-yl)acetic acid] |
| > 10000 | Cc1c(-c2ccc(=O)n(Cc3ccccc3)n2)c2cc(F)ccc2n1C(=O)c1cccnc1 [Example 262b, 2-benzyl-6-(5-fluoro-2-methyl-1-nicotinoyl-1H-indol-3-yl)pyridazin-3(2H)-one] |

The next lines start with the compound.

| SMILES | IC50 [nM] |
| --- | --- |
| Cc1c(-c2ccc(=O)n(C(C)C)n2)c2cc(Cl)cc(Cl)c2n1CC(=O)O [Example 235, 2-(5,7-dichloro-3-(1-isopropyl-6-oxo-1,6-dihydropyridazin-3-yl)-2-methyl-1H-indol-1-yl)acetic acid] | 1580 |
| Cc1c(-c2ccc(=O)n(Cc3ccccc3)n2)c2cc(F)cc(S(C)(=O)=O)c2n1CC(=O)O [Example 236, 2-(3-(1-benzyl-6-oxo-1,6-dihydropyridazin-3-yl)-5-fluoro-2-methyl-7-(methyl-sulfonyl)-1H-indol-1-yl)acetic acid] | > 1000 |
| Cc1c(Cc2ccc(=O)n(Cc3ccc(F)cc3F)n2)c2cc(F)cc(F)c2n1CC(=O)O [Example 242, 2-(3-((1-(2,4-difluorobenzyl)-6-oxo-1,6-dihydropyridazin-3-yl)methyl)-5,7-difluoro-2-methyl-1H-indol-1-yl)acetic acid] | 28 |
| Cc1c(-c2nn(Cc3ccccc3)c(=O)c3ccccc23)c2cc(F)cc(F)c2n1CC(=O)O [Example 244, 2-(3-(3-benzyl-4-oxo-3,4-dihydrophthalazin-1-yl)-5,7-difluoro-2-methyl-1H-indol-1-yl)acetic acid] | 60 |
| Cc1c(-c2cn(Cc3ccccc3)c(=O)c3ccccc23)c2ccccc2n1CC(=O)O [Example 247, 2-(3-(2-benzyl-1-oxo-1,2-dihydroisoquinolin-4-yl)-2-methyl-1H-indol-1-yl)-acetic acid] | 12 |
| COC(F)(F)Cn1cc(-c2c(C)n(CC(=O)O)c3ccccc23)c2ccccc2c1=O [Example 253, 2-(3-(2-(2,2-difluoro-2-methoxyethyl)-1-oxo-1,2-dihydroisoquinolin-4-yl)-2-methyl-1H-indol-1-yl)acetic acid] | 9 |
| Cc1c(-c2cn(CC(O)(C(F)(F)F)C(F)(F)F)c(=O)c3ccccc23)c2cc(F)ccc2n1CC(=O)O [Example 255, 2-(5-fluoro-2-methyl-3-(1-oxo-2-(3,3,3-trifluoro-2-hydroxy-2-(trifluoro-methyl)propyl)-1,2-dihydroisoquinolin-4-yl)-1H-indol-1-yl)acetic acid] | 55 |
| Cc1c(-c2cn(CCCC(F)(F)F)c(=O)c3ccccc23)c2cc(F)ccc2n1CC(=O)O [Example 256, (5-fluoro-2-methyl-3-(1-oxo-2-(4,4,4-trifluorobutyl)-1,2-dihydroisoquinolin-4-yl)-1H-indol-1-yl)acetic acid] | 2 |
| Cc1c(-c2cn(CC(C)(C)C)c(=O)c3ccccc23)c2cc(F)ccc2n1CC(=O)O [Example 257, 2-(5-fluoro-2-methyl-3-(2-neopentyl-1-oxo-1,2-dihydroisoquinolin-4-yl)-1H-indol-1-yl)acetic acid] | 3 |
| Cc1c(-c2nn(CC(N)=O)c(=O)c3ccccc23)c2cc(F)ccc2n1CC(=O)O [Example 258, {3-[3-(2-amino-2-oxoethyl)-4-oxo-3,4-dihydrophthalazin-1-yl]-5-fluoro-2-methyl-1H-indol-1-yl}acetic acid] | 11 |
| Cc1c(-c2nn(Cc3nnc[nH]3)c(=O)c3ccccc23)c2cc(Cl)ccc2n1CC(=O)O [Example 259a, 2-(3-(3-((4H-1,2,4-triazol-3-yl)methyl)-4-oxo-3,4-dihydrophthalazin-1-yl)-5-chloro-2-methyl-1H-indol-1-yl)acetic acid] | 61 |
| Cc1nnc(Cn2nc(-c3c(C)n(CC(=O)O)c4ccc(Cl)cc34)c3ccccc3c2=O)[nH]1 [Example 259b, 2-(5-chloro-2-methyl-3-(3-((5-methyl-4H-1,2,4-triazol-3-yl)methyl)-4-oxo-3,4-dihydrophthalazin-1-yl)-1H-indol-1-yl)acetic acid] | 26 |
| Cc1nnc(Cn2nc(-c3c(C)n(CC(=O)O)c4ccc(F)cc34)ccc2=O)[nH]1 [Example 260b, 2-(5-fluoro-2-methyl-3-(1-((5-methyl-4H-1,2,4-triazol-3-yl)methyl)-6-oxo-1,6-dihydro-pyridazin-3-yl)-1H-indol-1-yl)acetic acid] | 1650 |
| COc1ccc(C(=O)n2c(C)c(-c3ccc(=O)n(Cc4ccccc4)n3)c3cc(F)ccc32)cc1 [Example 262a, 2-benzyl-6-(5-fluoro-1-(4-methoxybenzoyl)-2-methyl-1H-indol-3-yl)-pyridazin-3(2H)-one] | > 10000 |
